Data reported in patent US12479847B2 (DANA-FARBER CANCER INSTITUTE, INC., priority 2019, dated 2025).

Columns and labels:
Assay in all cases: KINOMEscan (ScanMAX) kinase profiling
Format in all cases: binding
panel of 468 kinases [1] = target: T1, panel of 468 kinases (Homo sapiens, UniProt P53355); settings: DAPK1; 1 μM; read-out: % control
T1 construct: purchased KINOMEscan (ScanMAX) service

panel of 468 kinases [2] = target: T2, panel of 468 kinases (Homo sapiens, UniProt P43403); settings: ZAP70; 1 μM; read-out: % control
T2 construct: purchased KINOMEscan (ScanMAX) service
T2 sequence (P43403 1-619): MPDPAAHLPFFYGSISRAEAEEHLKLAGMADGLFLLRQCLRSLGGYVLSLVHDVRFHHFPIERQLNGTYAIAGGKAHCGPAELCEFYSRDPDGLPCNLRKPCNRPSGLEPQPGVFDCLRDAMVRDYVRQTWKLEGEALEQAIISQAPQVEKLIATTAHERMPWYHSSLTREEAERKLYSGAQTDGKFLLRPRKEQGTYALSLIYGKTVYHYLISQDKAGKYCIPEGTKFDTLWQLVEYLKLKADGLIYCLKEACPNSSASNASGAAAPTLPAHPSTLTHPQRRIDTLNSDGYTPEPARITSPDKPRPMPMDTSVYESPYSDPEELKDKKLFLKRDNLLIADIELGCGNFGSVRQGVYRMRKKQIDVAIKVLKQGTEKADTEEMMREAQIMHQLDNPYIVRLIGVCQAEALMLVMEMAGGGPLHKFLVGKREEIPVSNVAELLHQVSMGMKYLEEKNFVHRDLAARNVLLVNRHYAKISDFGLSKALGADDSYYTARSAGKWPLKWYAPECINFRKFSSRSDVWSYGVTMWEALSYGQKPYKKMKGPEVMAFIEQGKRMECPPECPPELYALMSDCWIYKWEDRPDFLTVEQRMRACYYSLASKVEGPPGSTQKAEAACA

panel of 468 kinases [3] = target: T3, panel of 468 kinases (Homo sapiens, UniProt Q86YV6); settings: MYLK4; 1 μM; read-out: % control
T3 construct: purchased KINOMEscan (ScanMAX) service
T3 sequence (Q86YV6 1-388): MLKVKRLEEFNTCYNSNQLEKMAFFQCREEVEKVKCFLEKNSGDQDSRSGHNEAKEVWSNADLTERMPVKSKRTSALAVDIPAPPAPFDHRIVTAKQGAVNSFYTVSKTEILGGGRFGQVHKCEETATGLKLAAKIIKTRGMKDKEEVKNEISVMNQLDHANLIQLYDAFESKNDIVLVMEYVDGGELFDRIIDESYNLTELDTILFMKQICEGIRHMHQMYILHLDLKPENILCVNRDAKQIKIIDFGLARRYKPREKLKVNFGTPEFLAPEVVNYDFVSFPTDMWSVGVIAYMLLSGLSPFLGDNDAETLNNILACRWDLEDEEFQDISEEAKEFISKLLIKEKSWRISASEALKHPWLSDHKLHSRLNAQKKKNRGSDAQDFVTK

panel of 468 kinases [4] = target: T4, panel of 468 kinases (Homo sapiens, UniProt Q06187); settings: BTK; 1 μM; read-out: % control
T4 construct: purchased KINOMEscan (ScanMAX) service

panel of 468 kinases [5] = target: T5, panel of 468 kinases (Homo sapiens, UniProt P52333); settings: JAK3(JH1domain-catalytic); 1 μM; read-out: % control
T5 construct: purchased KINOMEscan (ScanMAX) service
T5 sequence (P52333 1-1124): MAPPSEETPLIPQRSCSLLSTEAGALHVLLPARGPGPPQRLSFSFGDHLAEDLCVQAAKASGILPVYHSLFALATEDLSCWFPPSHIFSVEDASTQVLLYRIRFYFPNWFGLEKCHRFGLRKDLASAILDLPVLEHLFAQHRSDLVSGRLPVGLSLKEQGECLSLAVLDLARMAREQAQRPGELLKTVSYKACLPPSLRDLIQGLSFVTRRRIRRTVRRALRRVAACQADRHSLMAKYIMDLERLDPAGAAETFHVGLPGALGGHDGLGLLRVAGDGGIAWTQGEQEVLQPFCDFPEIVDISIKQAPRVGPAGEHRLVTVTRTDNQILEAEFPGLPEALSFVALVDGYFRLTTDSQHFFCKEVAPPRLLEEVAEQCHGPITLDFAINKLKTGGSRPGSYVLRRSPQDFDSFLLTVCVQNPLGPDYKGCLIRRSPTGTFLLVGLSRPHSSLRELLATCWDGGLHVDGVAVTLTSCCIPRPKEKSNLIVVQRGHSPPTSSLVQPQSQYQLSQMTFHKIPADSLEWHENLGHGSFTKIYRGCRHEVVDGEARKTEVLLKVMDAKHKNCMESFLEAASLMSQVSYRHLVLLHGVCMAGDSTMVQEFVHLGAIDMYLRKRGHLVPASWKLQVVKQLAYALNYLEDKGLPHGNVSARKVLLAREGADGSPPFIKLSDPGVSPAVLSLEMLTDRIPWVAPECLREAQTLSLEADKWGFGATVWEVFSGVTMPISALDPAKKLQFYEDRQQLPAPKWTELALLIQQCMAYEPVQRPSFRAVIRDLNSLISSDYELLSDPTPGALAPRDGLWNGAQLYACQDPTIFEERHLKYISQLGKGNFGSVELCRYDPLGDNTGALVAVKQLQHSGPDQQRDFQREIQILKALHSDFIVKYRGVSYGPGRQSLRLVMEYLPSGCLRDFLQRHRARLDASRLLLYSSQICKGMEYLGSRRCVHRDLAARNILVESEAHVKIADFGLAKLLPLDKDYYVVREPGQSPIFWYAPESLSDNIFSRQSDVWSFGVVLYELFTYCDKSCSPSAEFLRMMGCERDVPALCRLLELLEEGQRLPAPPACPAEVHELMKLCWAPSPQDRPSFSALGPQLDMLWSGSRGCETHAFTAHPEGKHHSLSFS

panel of 468 kinases [6] = target: T6, panel of 468 kinases (Homo sapiens, UniProt P51451); settings: BLK; 1 μM; read-out: % control
T6 construct: purchased KINOMEscan (ScanMAX) service
T6 sequence (P51451 whole entry): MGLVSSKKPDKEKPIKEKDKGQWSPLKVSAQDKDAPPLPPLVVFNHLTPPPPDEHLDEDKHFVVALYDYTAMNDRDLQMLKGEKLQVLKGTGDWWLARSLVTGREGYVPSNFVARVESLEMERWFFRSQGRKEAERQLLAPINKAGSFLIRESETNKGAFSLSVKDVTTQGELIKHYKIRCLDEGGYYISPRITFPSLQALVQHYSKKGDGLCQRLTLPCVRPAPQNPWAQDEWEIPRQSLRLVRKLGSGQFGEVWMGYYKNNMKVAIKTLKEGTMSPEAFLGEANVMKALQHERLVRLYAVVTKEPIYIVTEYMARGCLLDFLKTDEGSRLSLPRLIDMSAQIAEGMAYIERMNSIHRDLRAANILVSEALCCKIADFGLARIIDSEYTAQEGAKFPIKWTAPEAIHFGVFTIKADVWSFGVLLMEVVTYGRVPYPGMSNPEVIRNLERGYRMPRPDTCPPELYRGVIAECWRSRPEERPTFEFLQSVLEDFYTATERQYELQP

T4 sequence (Q06187 whole entry): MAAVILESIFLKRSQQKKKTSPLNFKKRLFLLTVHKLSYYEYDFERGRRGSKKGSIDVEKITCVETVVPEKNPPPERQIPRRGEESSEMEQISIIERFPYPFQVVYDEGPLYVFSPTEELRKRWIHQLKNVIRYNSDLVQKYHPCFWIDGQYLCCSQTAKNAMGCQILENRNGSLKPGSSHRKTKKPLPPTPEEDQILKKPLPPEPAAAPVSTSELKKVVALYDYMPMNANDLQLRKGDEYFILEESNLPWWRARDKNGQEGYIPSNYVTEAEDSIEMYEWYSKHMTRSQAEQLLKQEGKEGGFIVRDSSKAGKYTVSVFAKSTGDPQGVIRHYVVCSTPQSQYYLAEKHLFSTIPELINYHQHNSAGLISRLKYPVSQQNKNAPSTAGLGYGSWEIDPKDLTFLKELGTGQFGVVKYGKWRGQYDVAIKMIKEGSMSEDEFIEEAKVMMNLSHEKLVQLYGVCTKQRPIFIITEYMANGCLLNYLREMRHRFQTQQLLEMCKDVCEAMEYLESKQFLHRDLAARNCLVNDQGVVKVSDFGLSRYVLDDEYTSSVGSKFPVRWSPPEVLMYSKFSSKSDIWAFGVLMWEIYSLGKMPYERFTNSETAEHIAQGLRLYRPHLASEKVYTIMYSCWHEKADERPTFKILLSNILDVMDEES
T1 sequence (P53355 whole entry): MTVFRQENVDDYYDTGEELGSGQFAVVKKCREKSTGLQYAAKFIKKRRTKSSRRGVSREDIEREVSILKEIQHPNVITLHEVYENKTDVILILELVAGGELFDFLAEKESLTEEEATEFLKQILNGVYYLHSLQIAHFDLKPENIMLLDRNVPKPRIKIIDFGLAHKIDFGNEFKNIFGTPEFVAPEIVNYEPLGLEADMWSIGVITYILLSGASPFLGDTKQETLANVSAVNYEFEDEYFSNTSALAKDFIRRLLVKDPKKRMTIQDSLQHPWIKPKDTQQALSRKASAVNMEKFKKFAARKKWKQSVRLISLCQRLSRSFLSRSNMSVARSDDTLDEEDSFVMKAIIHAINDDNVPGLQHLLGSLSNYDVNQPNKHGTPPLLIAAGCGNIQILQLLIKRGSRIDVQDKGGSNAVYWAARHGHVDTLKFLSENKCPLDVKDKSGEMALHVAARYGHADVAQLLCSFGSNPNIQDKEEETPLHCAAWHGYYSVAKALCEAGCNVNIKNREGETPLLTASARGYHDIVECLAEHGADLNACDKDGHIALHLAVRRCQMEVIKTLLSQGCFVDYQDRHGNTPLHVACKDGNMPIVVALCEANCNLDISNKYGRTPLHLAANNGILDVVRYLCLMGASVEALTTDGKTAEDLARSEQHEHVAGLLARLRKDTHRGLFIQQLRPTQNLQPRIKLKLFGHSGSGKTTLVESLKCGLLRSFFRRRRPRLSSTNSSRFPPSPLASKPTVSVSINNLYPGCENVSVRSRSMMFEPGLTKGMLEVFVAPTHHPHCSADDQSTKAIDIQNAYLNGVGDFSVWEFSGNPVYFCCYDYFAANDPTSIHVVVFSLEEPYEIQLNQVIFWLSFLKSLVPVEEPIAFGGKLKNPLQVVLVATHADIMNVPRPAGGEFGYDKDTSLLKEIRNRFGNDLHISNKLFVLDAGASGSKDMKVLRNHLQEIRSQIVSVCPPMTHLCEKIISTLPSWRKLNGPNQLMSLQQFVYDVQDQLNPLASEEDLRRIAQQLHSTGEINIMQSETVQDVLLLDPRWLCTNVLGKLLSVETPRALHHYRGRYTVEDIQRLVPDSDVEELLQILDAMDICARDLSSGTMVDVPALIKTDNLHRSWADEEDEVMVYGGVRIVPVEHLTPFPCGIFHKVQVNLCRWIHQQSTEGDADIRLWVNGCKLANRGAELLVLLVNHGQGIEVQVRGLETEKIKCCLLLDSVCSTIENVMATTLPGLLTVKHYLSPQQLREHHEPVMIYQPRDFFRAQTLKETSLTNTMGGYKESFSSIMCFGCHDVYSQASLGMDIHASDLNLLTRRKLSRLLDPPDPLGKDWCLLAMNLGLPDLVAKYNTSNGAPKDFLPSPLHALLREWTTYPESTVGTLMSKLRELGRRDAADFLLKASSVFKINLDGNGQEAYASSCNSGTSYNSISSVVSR

SMILES: CNc1nc(Nc2ccc(S(=O)(=O)N3CCC(N4CCOCC4)CC3)cc2OC)nc2[nH]cc(Cl)c12 [Compound 12, 5-chloro-N2-(2-methoxy-4-((4-morpholinopiperidin-1-yl)sulfonyl)phenyl)-N4-methyl-7H-pyrrolo[2,3-d]pyrimidine-2,4-diamine]
- remaining binding at 1 µM (panel of 468 kinases [1]): 43%
- remaining binding at 1 µM (panel of 468 kinases [2]): 65%
- remaining binding at 1 µM (panel of 468 kinases [3]): 100%
- remaining binding at 1 µM (panel of 468 kinases [4]): 79%
- remaining binding at 1 µM (panel of 468 kinases [5]): 77%
- remaining binding at 1 µM (panel of 468 kinases [6]): 100%

SMILES: CNc1nc(Nc2ccc(C(=O)N3CCC(N4CCOCC4)CC3)c3c2OCO3)nc2[nH]cc(Cl)c12 [Compound 75, (7-((5-chloro-4-(methylamino)-7H-pyrrolo[2,3-d]pyrimidin-2-yl)amino)benzo[d][1,3]dioxol-4-yl)(4-morpholinopiperidin-1-yl)methanone]
- remaining binding at 1 µM (panel of 468 kinases [1]): 14%
- remaining binding at 1 µM (panel of 468 kinases [2]): 22%
- remaining binding at 1 µM (panel of 468 kinases [3]): 100%
- remaining binding at 1 µM (panel of 468 kinases [4]): 98%
- remaining binding at 1 µM (panel of 468 kinases [5]): 25%
- remaining binding at 1 µM (panel of 468 kinases [6]): 100%

SMILES: CNc1nc(Nc2ccc(P3(=O)CCN(C4CCOCC4)CC3)cc2OC)nc2[nH]cc(Cl)c12 [Compound 77, 4-(4-((5-chloro-4-(methylamino)-7H-pyrrolo[2,3-d]pyrimidin-2-yl)amino)-3-methoxyphenyl)-1-(tetrahydro-2H-pyran-4-yl)-1,4-azaphosphinane 4-oxide]
- remaining binding at 1 µM (panel of 468 kinases [1]): 8.3%
- remaining binding at 1 µM (panel of 468 kinases [2]): 37%
- remaining binding at 1 µM (panel of 468 kinases [3]): 64%
- remaining binding at 1 µM (panel of 468 kinases [4]): 100%
- remaining binding at 1 µM (panel of 468 kinases [5]): 86%
- remaining binding at 1 µM (panel of 468 kinases [6]): 100%
